pIC50: −log10 of the molar value.
Tests used:
JAK1 (h) = biological target: T1, JAK1 (h) (Homo sapiens, UniProt P23458); assay: JAK1 (h) kinase assay; type: biochemical; conditions: [γ-33P-ATP] 10 μM or KM values; 40 minutes at room temperature
T1 construct: purchased Millipore UK Ltd (assays performed there as a service)
Outline: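 Radiometric filter-binding assay: human JAK1 incubated 40 min at room temperature in 20 mM Tris/HCl pH 7.5, 0.2 mM EDTA, 500 μM peptide substrate, 10 mM Mg acetate, with [γ-33P]ATP at 10 μM or KM. Reaction stopped with phosphoric acid; P30 filtermat scintillation counting.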

[1] = Compound stability in human liver microsomes; type: in vitro ADME; conditions: for half-life at 5 μM: human liver microsomes 0.5 mg protein/mL, compound 5 μM, NADPH 1.0 mM, pH 7.4, 37° C., read-out: Human T1/2; for CLint scaled at 5 μM: liver microsomes, pH 7.4, in vivo CLint extrapolated from human liver microsome incubation
Outline: (§1)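 Compounds (5 μM) incubated at 37 °C with human or rat liver microsomes (0.5 mg protein/mL) and 1.0 mM NADPH in 100 mM phosphate buffer pH 7.4, 0.05% DMSO, in duplicate. Sampled 0–60 min, quantified by LC/MS/MS as % of time zero; CLint extrapolated.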

[2] = Compound stability in rat liver microsomes; type: in vitro ADME; conditions: for CLint scaled at 5 μM: liver microsomes, pH 7.4, in vivo CLint extrapolated from rat liver microsome incubation; for half-life at 5 μM: rat liver microsomes 0.5 mg protein/mL, compound 5 μM, NADPH 1.0 mM, pH 7.4, 37° C., read-out: Rat T1/2
Outline: as §1

T1 sequence (P23458 whole entry): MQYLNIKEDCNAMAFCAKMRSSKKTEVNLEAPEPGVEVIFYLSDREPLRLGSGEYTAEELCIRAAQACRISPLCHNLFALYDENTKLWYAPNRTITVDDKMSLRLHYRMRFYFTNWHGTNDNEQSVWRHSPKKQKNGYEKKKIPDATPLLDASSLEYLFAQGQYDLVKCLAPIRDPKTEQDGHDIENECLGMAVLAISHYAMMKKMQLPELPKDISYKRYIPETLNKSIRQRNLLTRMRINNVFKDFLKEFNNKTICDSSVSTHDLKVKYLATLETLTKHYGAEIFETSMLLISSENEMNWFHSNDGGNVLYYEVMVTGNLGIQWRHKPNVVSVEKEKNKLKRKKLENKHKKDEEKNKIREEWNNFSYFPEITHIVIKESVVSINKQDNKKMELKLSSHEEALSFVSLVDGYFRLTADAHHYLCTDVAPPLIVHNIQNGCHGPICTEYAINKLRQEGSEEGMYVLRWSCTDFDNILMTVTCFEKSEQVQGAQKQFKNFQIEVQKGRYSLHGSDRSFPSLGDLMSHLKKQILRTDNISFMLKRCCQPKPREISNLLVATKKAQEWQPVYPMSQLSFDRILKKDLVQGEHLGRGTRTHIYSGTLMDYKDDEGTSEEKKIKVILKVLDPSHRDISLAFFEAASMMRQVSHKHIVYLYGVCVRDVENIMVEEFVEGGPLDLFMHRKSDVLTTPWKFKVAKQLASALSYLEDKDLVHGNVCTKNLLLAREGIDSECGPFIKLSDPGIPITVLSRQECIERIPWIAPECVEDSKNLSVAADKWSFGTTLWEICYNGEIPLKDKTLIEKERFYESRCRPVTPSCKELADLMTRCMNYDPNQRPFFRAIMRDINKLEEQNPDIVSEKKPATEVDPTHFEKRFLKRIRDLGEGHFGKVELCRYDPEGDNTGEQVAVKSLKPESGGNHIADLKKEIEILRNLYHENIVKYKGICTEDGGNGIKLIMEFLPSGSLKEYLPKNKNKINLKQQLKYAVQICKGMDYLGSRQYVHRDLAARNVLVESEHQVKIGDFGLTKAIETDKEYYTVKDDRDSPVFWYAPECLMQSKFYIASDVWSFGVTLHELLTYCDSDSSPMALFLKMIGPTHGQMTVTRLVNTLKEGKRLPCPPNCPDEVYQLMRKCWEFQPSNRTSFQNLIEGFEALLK

pIC50 (JAK1 (h)) | half-life at 5 μM [1] | CLint scaled at 5 μM [1] | CLint scaled at 5 μM [2] | half-life at 5 μM [2] | Structure (SMILES)
9.30 | 496 min | 3.5 mL/min/kg | 14.6 mL/min/kg | 170 min | CC(C)(O)Cn1nnc2cc(Nc3ncc(Cl)c(NC4CCN(c5ccc(C#N)cn5)CC4)n3)ccc21 [Example 69, 6-(4-((5-chloro-2-((1-(2-hydroxy-2-methylpropyl)-1H-benzo[d][1,2,3]triazol-5-yl)amino)pyrimidin-4-yl)amino)piperidin-1-yl)nicotinonitrile]
> 9.52 | 37 min | 46.9 mL/min/kg | 44.6 mL/min/kg | 55.7 min | Cc1nc2cc(Nc3ncc(Cl)c(NC4CCN(c5ccc(C#N)cn5)CC4)n3)ccc2n1C [Example 48, 6-(4-((5-chloro-2-((1,2-dimethyl-1H-benzo[d]imidazol-5-yl)amino)pyrimidin-4-yl)amino)piperidin-1-yl)nicotinonitrile]
> 9.52 | 63.1 min | 27.5 mL/min/kg | 32.5 mL/min/kg | 76.3 min | Cn1cnc2cc(Nc3ncc(Cl)c(NC4CCN(c5ccc(C#N)cn5)CC4)n3)ccc21 [Example 46, 6-(4-((5-chloro-2-((1-methyl-1H-benzo[d]imidazol-5-yl)amino)pyrimidin-4-yl)amino)piperidin-1-yl)nicotinonitrile]

Source: patent US10683297B2 (Sunshine Lake Pharma Co., Ltd., priority 2017, dated 2020)
